Measurements: patent US6696303B2, “Identifying substances using cells that express p75NTR” (Trustees of Boston University, priority 1996, dated 2004)

Columns and labels:
Bax = Bax level in melanocytes by Western blot with anti-Bax antibody; type: cell-based, human; details: for increased Bax level as compared to the 40-1 peptide: 25 μM, four days; for Bax induction: 25 uM, within 4 days, vs 40-1 control fragment or irrelevant protein
Description: To investigate the mechanism of β-amyloid-mediated melanocyte death, Bax levels in melanocytes treated with 25 uM of 1-40 or 25-35 β-amyloid peptides was examined. Within 4 days of treatment, Bax was induced 3 fold in melanocytes stimulated either with the β-amyloid 1-40 or 25-35 fragments as compared to melanocytes treated with the 40-1 control fragment or an irrelevant HPLC purified protein of similar size.
Melanocytes were maintained as above. Four days after addition of 25 μM of β-amyloid fragments 1-40, 40-1 or 25-35; or 25 μM of HPLC-purified bovine corticotropin releasing factor (CRF) (Bachem Calif.) (MW 4.7 kD) as an additional negative control, cells were extracted in RIPA buffer (50 mM Tris-HCl, 0.15 M NaCl, 0.5% sodium deoxycholate, 1% TRITON®X-100) in the presence of 1 μ/ml aprotinin and 75 μg/ml phenylmethylsulfonyl fluoride (PMSF), sonicated for 1-3 seconds and centrifuged. 40 μg of protein per lane were separated on 12% SDS/PAGE and blotted onto nitrocellulose paper (overnight, 25V). To verify equal loading a duplicate 13% SDS/PAGE was performed and stained with Coomasie Blue R250 stain. Blots were incubated with anti-Bax antibody (1:1000 dilution) (primary antibody), followed by horseradish peroxidase-conjugated goat anti-rabbit IgG (secondary antibody) (1:500 dilution) (Bio-Rad Laboratories, Hercules, Calif.). Bound antibodies were detected using enhanced chemiluminescence kit (Amersham Corp.). Autoradiograms were scanned into a Macintosh II is computer using the Of to TM program (Light source Computer Images, Inc.). Scan analysis was performed with manual definition of bands using Scan Analysis TM 68000 program (Biosoft, Cambridge, UK).

p75^NTR [1] = assay: UV irradiated melanocytes treated with anti p75NTR antisense oligonucleotides; type: cell-based
Description: Melanocytes were UV irradiated with 25 mJ/cm^2 and then supplemented either with 10 μM anti p75^NTR anti sense phosphothioate oligonucleotides ([…] SEQ ID NO.: 5) directed against the 3′ end of the p75^NTR coding region, or the same concentration of sense oligonucleotides as a negative control.
Immunohistochemical analysis confirmed that p75^NTR was not expressed in cells treated with anti-p75^NTR anti-sense oligonucleotides, but was expressed in the sense treated cells. Within 24 hours after irradiation; the following was observed the following were observed: […]

p75^NTR [2] = target: T1, p75^NTR (Homo sapiens, UniProt P08138); assay: competition for 125I labeled β-amyloid 1-40 binding on p75NTR-NIH 3T3 cells; details: NGF 100 ng/ml; 2 hours at 4° C.
T1 construct: expressed in transfected cells; host or cells: NIH 3T3 fibroblasts, permanently transfected (p75NTR-NIH 3T3 cells)
T1 sequence (P08138 29-427): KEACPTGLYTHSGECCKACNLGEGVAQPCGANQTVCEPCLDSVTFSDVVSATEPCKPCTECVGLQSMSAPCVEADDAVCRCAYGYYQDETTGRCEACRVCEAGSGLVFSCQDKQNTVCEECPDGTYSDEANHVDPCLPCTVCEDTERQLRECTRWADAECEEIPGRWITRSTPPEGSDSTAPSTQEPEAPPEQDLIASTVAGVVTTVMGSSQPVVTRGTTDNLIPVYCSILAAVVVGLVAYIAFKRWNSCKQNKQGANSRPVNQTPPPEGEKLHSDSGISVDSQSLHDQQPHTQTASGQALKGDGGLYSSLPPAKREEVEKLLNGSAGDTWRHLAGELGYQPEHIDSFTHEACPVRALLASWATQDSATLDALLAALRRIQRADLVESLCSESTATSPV
Text: After rinsing in PBS, cells were lysed in 1N NaOH and equal amounts of protein from cell lysates were subject to counting.
[…] (SEQ ID NO: 4). Lysates from 1.5×10^5 cells were subjected to counting.

p75^NTR [3] = target: T1, p75^NTR; assay: receptor affinity for p75NTR; type: binding
melanocytes = assay: NGF supplementation of β-amyloid-treated melanocytes; type: cell-based, human; details: for percent of live cells (spread): 48 hours
Description: Melanocytes were maintained as above in hormone supplemented medium lacking hydrocortisone. Cells were supplemented with 25 μM of β-amyloid 1-40 in the presence of 50 ng/ml NGS or diluent.
Photographs of representative fields were obtained and the percent of the live cells (spread) was determined 48 hours after addition of β-amyloid and NFG or β-amyloid and diluent.
At least 400 cells were counted in each condition.

p75^NTR [4] = target: T1, p75^NTR; details: lysine at position 34 replaced by alanine; vs NGF; cited from earlier work
normal human melanocytes = assay: melanocyte cell yield and morphology after β-amyloid supplementation; type: cell-based
Description: To determine the effect of β-amyloid on normal human melanocytes, cultures were supplemented with increasing concentrations (0.025-50 uM) of HPLC-purified β-amyloid fragment corresponding to amino acids 1-40. A peptide containing the first 40 amino acids synthesized in reverse order (40-1) was used as a negative control.
Melanocytes were maintained in serum free Medium 199 (Gibco BRL Gaithersburg, Md.) supplemented with epidermal growth factor (10 ng/ml) (Collaborative Research), insulin (10 μg/ml) (Sigma), triiodothyronine (10^−9 M) (Collaborative Research), transferrin (10 μg/ml) (Sigma), hydrocortisone (1.4×10^−6 M) (Calbiochem), cholera toxin (10^−9 M) (Calbiochem) and basic fibroblast growth factor (basic FGF) (10 ng/ml) (Collaborative Research). Two days after plating cells were supplemented with increasing concentrations of β-amyloid 1-40 or the control peptide 40-1 (0-50 μM) (Bachem Calif., Torrance, Calif.).

p75^NTR [5] = target: T1, p75^NTR; assay: cross linking of 125I β-amyloid 1-40 and immunoprecipitation with anti p75NTR antibodies; type: binding; details: p75NTR-NIH 3T3 cells, disuccinimidyl suberate cross linking
Description: p75^NTR-NIH 3T3 cells were maintain in DMEM supplemented with 10% FBS in the presence of penicillin (45 ng/ml), streptomycin (68 ng/ml), and hygromycin B (17.5 ng/ml). At 80% confluence cells were lifted from the dish with EDTA and incubated in suspension with 5 uCi ^125I labeled β-amyloid 1-40 at 4° C. for 1 hour in DMEM. After incubation, 1 mM of disuccinimidyl suberate was added for 30 minutes. Following centrifugation cells were lysed with RIPA buffer (50 mM Tris HCl, pH 8.0, 0.15 M NaCl 0.5% sodium deoxycholate 4, 5 mM MgC2, 1% TRITON®X-100, 1 mM phenylmethylsulfonylfluoride, and 1 μg/ml aprotinin), sonicated for 1-3 seconds and immunoprecipitated with anti p75^NTR antibodies (mouse monoclonal IgGl, Cedarlane Laboratories Ltd., Ontario, Canada) or mouse IgG as control for 16 hours at 4° C. in the presence of 15 ul of protein G plus protein A agarose and 1M NaCl adjusted to pH 8.0. After several washes with 20 mM Tris HCl, pH 8.0, 1M NaCl, 5mM MgCl2, 0.2% TRITON®X-100 and 1 mM PMSF, immunoprecipitates were separated over 8% PAGE and subjected to autoradiography. A band of appropriate molecular weight was present only in lysates immunoprecipitated with anti p75^NTR antibodies and not lysates immunoprecipitated with irrelevant mouse IgG.

p75^NTR 3T3 cells = assay: cell yield of p75NTR 3T3 cells with β-amyloid and cyclic peptide; type: cell-based
Description: p75^NTR 3T3 cells were maintained in serum free medium supplemented with 200 nM β-amyloid 1-40, 200 nM cyclic peptide […], (SEQ ID NO: 4) 20 nM β-amyloid 1-40 and 200 nM cyclic peptide or diluent alone.

[6] = NGF supplementation, preliminary data
[7] = ≧25 μM, compared to control cultures

## 25-35: β-amyloid peptide fragment of amino acid residues 25-35 (GSNKGAIIGLM)
Bax
  increased Bax level as compared to the 40-1 peptide: 160%
  Bax induction: 3 fold

## CTCCCACTCGTCATTCGAC (all phosphorothioate, sugars by position and methylation of C not given here) [anti-sense oligonucleotides, anti p75NTR anti sense phosphothioate oligonucleotides directed against the 3′ end of the p75NTR coding region]
p75^NTR [1]; 10 μM oligonucleotide, melanocytes UV irradiated with 25 mJ/cm^2
  p75NTR expression (immunohistochemical analysis): not expressed
p75^NTR [1]; diluent instead of NGF
  appearance of cells within 24 hours after irradiation: appear as healthy as cells provided NGF lacking p75^NTR
p75^NTR [1]; with 50 ng/ml NGF
  appearance of cells within 24 hours after irradiation: do not appear as healthy or numerous as cells expressing both receptors in the presence of NGF

## NGF: Nerve growth factor, physiologic ligand for p75NTR
p75^NTR [2]
  maximum inhibition of 125I labeled β-amyloid binding: 38%
p75^NTR [3]
  higher receptor affinity than β-amyloid: 2-3 fold
p75^NTR [1]; with 50 ng/ml NGF
  appearance of cells within 24 hours after irradiation: appear healthy
melanocytes; 25 μM β-amyloid 1-40 and 50 ng/ml NGF
  percent of live cells (spread): 96±1.4%
melanocytes; NGF added, within 3-5 days
  cell yields of β-amyloid-supplemented melanocytes: enhanced cell yields
melanocytes; [6]
  Bcl-2 levels: increases Bcl-2 levels
  β-amyloid-induced Bax upregulation: decreases the β-amyloid-induced Bax upregulation

## mutant NGF: NGF in which lysine (K) at position 34 is replaced by alanine (A)
p75^NTR [4]
  lower affinity of binding to p75NTR: 50%

## β-amyloid 1-40: HPLC-purified β-amyloid fragment corresponding to amino acids 1-40
Bax
  increased Bax level as compared to the 40-1 peptide: 270%
  Bax induction: 3 fold
Bax; [7]
  upregulation of Bax protein expression: approximately three fold
Normal human melanocytes; 0-50 μM, three to five days after addition
  effect on cell yield: dose dependent decrease of cell yield
Normal human melanocytes; 25-30 uM, compared to cell yield before β-amyloid addition (100%)
  decrease in cell yield: 59%±17%
Normal human melanocytes; low concentrations (≦1 μM)
  dendrite outgrowth: extensive outgrowth of dendrites
Normal human melanocytes; within 3-5 days, total of four experiments
  decrease of melanocyte yield: > 50%
Normal human melanocytes; [7]
  proportion of apoptotic cells: significantly increases the proportion of apoptotic cells
p75^NTR [5]
  binding to p75NTR (autoradiogram of immunoprecipitates): protein band of 75-80 kD in size only in lysates immunoprecipitated with anti p75^NTR antibodies
melanocytes; 25 μM β-amyloid 1-40 and diluent
  percent of live cells (spread): 77±8.5%
p75^NTR 3T3 cells; 200 nM, serum free medium, up to 120 hours
  cell yield compared to all other cultures: prominent decrease of cell yield
p75^NTR 3T3 cells; β-amyloid 200 nM
  reduction of cell yields: ~60%
